Results from patent publication EP4477653A1 (Perha Pharmaceuticals, priority 2023, dated 2024).

These molecules were tested against T1, human recombinant A3AR (expressed in HEK-293 cells) (Homo sapiens, UniProt P0DMS8) (assay: Adenosine receptors antagonism assay (Eurofins), [125I]-AB-MECA radioligand competition). Conditions: [125I]-AB-MECA 0.15 nM, r.t., 120 min; IC50 from dose-response curves; read-out: Potency Class A3AR.
T1 construct: host or cells: HEK-293 cells
T1 sequence (P0DMS8 1-318): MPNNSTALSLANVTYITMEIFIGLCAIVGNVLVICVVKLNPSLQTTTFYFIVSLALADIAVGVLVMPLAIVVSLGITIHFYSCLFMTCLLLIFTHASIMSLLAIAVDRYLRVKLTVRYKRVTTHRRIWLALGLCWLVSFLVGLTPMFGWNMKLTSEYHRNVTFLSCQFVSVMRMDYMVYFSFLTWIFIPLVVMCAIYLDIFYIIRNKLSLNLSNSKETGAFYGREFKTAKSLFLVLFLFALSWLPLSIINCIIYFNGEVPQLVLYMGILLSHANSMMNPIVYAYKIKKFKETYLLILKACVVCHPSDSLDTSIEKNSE
Type: binding

`c1ccc(CNc2cc(NCc3ccsc3)nn3c(C4CC4)nnc23)nc1` [compound 218, 3-cyclopropyl-N8-(pyridin-2-ylmethyl)-N6-(thiophen-3-ylmethyl)-[1,2,4]triazolo[4,3-b]pyridazine-6,8-diamine] and `CC(C)(C)Nc1cc(NCc2ccccn2)c2nnc(C3CC3)n2n1` [compound 195, N6-(tert-butyl)-3-cyclopropyl-N8-(pyridin-2-ylmethyl)-[1,2,4]triazolo[4,3-b]pyridazine-6,8-diamine] fall in the same range of IC50: 1 to 10 nM for the first, 1 to 10 nM for the second.

First: CC[C@H](CO)Nc1cc(NCc2ccccc2)c2nnc(C(F)(F)F)n2n1 [compound 37, (2R)-2-[[8-(benzylamino)-3-(trifluoromethyl)-[1,2,4]triazolo[4,3-b]pyridazin-6-yl]amino]butan-1-ol]
Second: COCCNc1cc(NCc2ccccc2)c2nnc(C(C)C)n2n1 [compound 12, N8-benzyl-3-isopropyl-N6-(2-methoxyethyl)-[1,2,4]triazolo[4,3-b]pyridazine-6,8-diamine]
The IC50 of the first is lower: 10 to 100 nM for the first, 100 to 1000 nM for the second.

`CCC(CC)Nc1cc(NCc2ccccc2OC)c2nnc(C(C)C)n2n1` [compound 73, N6-(1-ethylpropyl)-3-isopropyl-N8-[(2-methoxyphenyl)methyl]-[1,2,4]triazolo[4,3-b]pyridazine-6,8-diamine] and `CCC(CC)Nc1cc(Nc2ccccc2)c2nnc(C(C)C)n2n1` [compound 45, N6-(1-ethylpropyl)-3-isopropyl-N8-phenyl-[1,2,4]triazolo[4,3-b]pyridazine-6,8-diamine] fall in the same range of IC50: 1 to 10 nM for the first, 1 to 10 nM for the second.

Compared with `CC(=O)NCCCNc1cc(NCc2ccccc2)c2nnc(C(C)C)n2n1` [compound 24, N-[3-[[8-(benzylamino)-3-isopropyl-[1,2,4]triazolo[4,3-b]pyridazin-6-yl]amino]propyl]acetamide], `CNC(=O)CCNc1cc(NCc2ccccc2)c2nnc(C(C)C)n2n1` [compound 26, 3-[[8-(benzylamino)-3-isopropyl-[1,2,4]triazolo[4,3-b]pyridazin-6-yl]amino]-N-methyl-propanamide] is lower in IC50: 100 to 1000 nM for the first, 10 to 100 nM for the second. The second is the more potent here.

`CCC(CC)Nc1cc(NCc2ccccn2)c2nnc(C3CCCC3)n2n1` [compound 64, 3-cyclopentyl-N6-(1-ethylpropyl)-N8-(2-pyridylmethyl)-[1,2,4]triazolo[4,3-b]pyridazine-6,8-diamine] and `c1ccc(CNc2cc(NC3CC3)nn3c(C4CC4)nnc23)nc1` [compound 197, N6,3-dicyclopropyl-N8-(pyridin-2-ylmethyl)-[1,2,4]triazolo[4,3-b]pyridazine-6,8-diamine] fall in the same range of IC50: 10 to 100 nM for the first, 10 to 100 nM for the second.

`CCC(CC)Nc1cc(NCCc2ccncc2)c2nnc(C3CC3)n2n1` [compound 88, 3-cyclopropyl-N6-(1-ethylpropyl)-N8-[2-(4-pyridyl)ethyl]-[1,2,4]triazolo[4,3-b]pyridazine-6,8-diamine] and `CCC(CC)Nc1cc(NCCc2ccncc2)c2nnc(C(C)C)n2n1` [compound 85, N6-(1-ethylpropyl)-3-isopropyl-N8-[2-(4-pyridyl)ethyl]-[1,2,4]triazolo[4,3-b]pyridazine-6,8-diamine] fall in the same range of IC50: 1 to 10 nM for the first, 1 to 10 nM for the second.

Compared with `CCC(CC)Nc1cc(Nc2cncnc2)c2nnc(C3CC3)n2n1` [compound 178, 3-cyclopropyl-N6-(1-ethylpropyl)-N8-pyrimidin-5-yl-[1,2,4]triazolo[4,3-b]pyridazine-6,8-diamine], `CC1(CNc2cc(NCc3ccccn3)c3nnc(C4CC4)n3n2)CCC1` [compound 206, 3-cyclopropyl-N6-((1-methylcyclobutyl)methyl)-N8-(pyridin-2-ylmethyl)-[1,2,4]triazolo[4,3-b]pyridazine-6,8-diamine] is higher in IC50: less than 1 nM for the first, 1 to 10 nM for the second. The first is the more potent here.

`CCC(CC)Nc1cc(NCc2ccccn2)c2nnc(-c3ccccn3)n2n1` [compound 70, N6-(1-ethylpropyl)-3-(2-pyridyl)-N8-(2-pyridylmethyl)-[1,2,4]triazolo[4,3-b]pyridazine-6,8-diamine] was tested, and the IC50 was 100 to 1000 nM.
